{
  "source": "patent EP4667465A1",
  "about": "“SALT OF BENZO-NITROGEN HETEROAROMATIC RING DERIVATIVE, CRYSTALLINE FORM, AND PHARMACEUTICAL USE THEREOF” (Haisco Pharmaceutical Group Co., Ltd., priority 2023, dated 2024)",
  "key": {"[1]": {"test": "Pharmacokinetic test in rats", "assay_type": "in vivo, SD rats", "procedure": "Experimental objective: in this experiment, a single dose of the test substance was administered to SD rats intravenously and intragastrically, and the concentration of the test substance in plasma of the rats was measured to evaluate the pharmacokinetic characteristics of the test substance in the rats. Experimental animals: male SD rats, 200-250 g, 6-8 weeks old, 6 rats/compound, purchased from Chengdu Dossy Experimental Animals Co., Ltd. Experimental method: on the day of the experiment, 6 SD rats were randomly grouped according to their body weights. […] Sampling: before and after the administration, 0.15 mL of blood was taken from the orbits under isoflurane anesthesia and placed in an EDTAK2 centrifuge tube. Centrifugation was carried out at 5000 rpm at 4°C for 10 min, and the plasma was collected. The plasma collection time points for IV&PO groups were 0, 5 min, 15 min, 30 min, 1 h, 2 h, 4 h, 6 h, 8 h, and 24 h. Before analysis and detection, all samples were stored at -60°C. The samples were analyzed quantitatively by LC-MS/MS."}, "[2]": {"test": "Pharmacokinetic test in monkeys", "assay_type": "in vivo, cynomolgus monkeys", "conditions": "compared with the trifluoroacetate of LNP023, in words", "procedure": "Experimental objective: in this experiment, a single dose of test substance was administered to cynomolgus monkeys intravenously and intragastrically, and the concentration of the test substance in plasma of the monkeys was measured to evaluate the pharmacokinetic characteristics of the test substance in the monkeys.\nExperimental animals: male cynomolgus monkeys, 3-5 kg, 3-6 years old, 6 monkeys/compound, purchased from Suzhou Xishan Biotechnology Co., Ltd.\nExperimental method: on the day of the experiment, 6 monkeys were randomly grouped according to their body weights. The cynomolgus monkeys were fasted with water available for 14-18 h one day before the administration, and were fed 4 h after the administration.\nSampling: before and after the administration, 1.0 mL of blood was taken from the limb veins and placed in an EDTAK2 centrifuge tube. Centrifugation was carried out at 5000 rpm at 4°C for 10 min, and the plasma was collected.\nThe plasma collection time points for IV&PO groups were 0, 5 min, 15 min, 30 min, 1 h, 2 h, 4 h, 6 h, 8 h, 10 h, 12 h, and 24 h.\nBefore analysis and detection, all samples were stored at -60°C. The samples were analyzed quantitatively by LC-MS/MS."}, "Caco-2 cells": {"tested_on": "Caco-2 cells", "conditions": "Caco2, compared with the trifluoroacetate of LNP023; in words", "procedure": "(§1) In the experiment, a monolayer of Caco-2 cells was used, and incubated in triplicate in a 96-well Transwell plate. A transport buffer solution (HBSS, 10 mM HEPES, pH 7.4 ± 0.05) containing the compound of the present invention (2 µM) or the control compound digoxin (10 µM), nadolol (2 µM) or metoprolol (2 µM) was added to the administration end hole on the apical side or basal side. A DMSO-containing transport buffer solution was added to the corresponding receiving end hole. After incubation for 2 hours at 37°C ± 1°C, the cell plate was removed, and an appropriate amount of samples was taken from both the apical side and basal side and transferred to a new 96-well plate. Subsequently, acetonitrile containing an internal standard was added to precipitate the protein. The samples were analyzed using LC MS/MS, and the concentrations of the compound of the present invention and the control compound were determined. Concentration data were used to calculate apparent permeability coefficients for transport from the apical side to the basal side, and from the basal side to the apical side of the cell monolayer, and thus to calculate the efflux ratio. The integrity of the cell monolayer after 2 hours of incubation was evaluated by leakage of Lucifer Yellow."}, "in vitro": {"test": "in vitro", "conditions": "human, Caco-2, pH 7.4", "procedure": "as §1"}, "complement factor B": {"target": "complement factor B (Homo sapiens, UniProt P00751)", "sequence (P00751 26-764)": "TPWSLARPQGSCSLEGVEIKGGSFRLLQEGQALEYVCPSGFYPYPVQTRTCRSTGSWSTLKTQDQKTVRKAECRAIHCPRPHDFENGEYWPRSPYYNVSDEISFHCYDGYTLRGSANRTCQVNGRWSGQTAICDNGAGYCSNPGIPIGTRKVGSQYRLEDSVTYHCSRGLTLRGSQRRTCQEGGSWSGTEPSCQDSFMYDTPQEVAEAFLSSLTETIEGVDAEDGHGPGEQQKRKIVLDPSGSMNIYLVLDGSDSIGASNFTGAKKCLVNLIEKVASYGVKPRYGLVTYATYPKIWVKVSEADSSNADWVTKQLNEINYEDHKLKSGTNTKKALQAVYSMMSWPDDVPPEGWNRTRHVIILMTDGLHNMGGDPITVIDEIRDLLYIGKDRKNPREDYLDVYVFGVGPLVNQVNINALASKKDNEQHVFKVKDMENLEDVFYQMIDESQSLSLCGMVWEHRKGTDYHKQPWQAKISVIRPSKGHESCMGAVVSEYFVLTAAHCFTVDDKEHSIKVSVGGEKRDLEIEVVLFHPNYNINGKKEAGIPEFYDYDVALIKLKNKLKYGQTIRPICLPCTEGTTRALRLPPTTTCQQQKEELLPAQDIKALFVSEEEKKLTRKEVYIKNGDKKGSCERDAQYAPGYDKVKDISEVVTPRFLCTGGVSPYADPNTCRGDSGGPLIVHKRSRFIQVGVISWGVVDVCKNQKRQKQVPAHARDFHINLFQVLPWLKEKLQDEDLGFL", "conditions": "in words; disclosed in PCT/CN 2022/113216; cited from earlier work"}, "C3a level": {"tested_on": "C3a level", "conditions": "in words; disclosed in PCT/CN 2022/113216; cited from earlier work"}, "[3]": {"test": "Stability of the crystalline form (purity under accelerated, intermediate and long-term storage)", "assay_type": "physicochemical"}, "[4]": {"test": "Hygroscopicity (sorption isotherm curve)", "assay_type": "physicochemical", "conditions": "at 80% RH", "source_text": "According to the description of the hygroscopicity characteristics and the definition of hygroscopic weight gain in the Chinese Pharmacopoeia 2020 Edition, Volume IV, General Chapter 9103: Guidelines for Hygroscopicity Trials for Pharmaceuticals, • deliquescence: absorbing enough moisture to form a liquid; • extremely hygroscopic: a hygroscopic weight gain of not less than 15%; • hygroscopic: a hygroscopic weight gain of less than 15% but no less than 2%; • slightly hygroscopic: a hygroscopic weight gain of less than 2% but no less than 0.2%; and • non-hygroscopic or practically non-hygroscopic: a hygroscopic weight gain of less than 0.2%."}, "[5]": {"conditions": "in rats, compared with LNP023, in words"}, "[6]": {"conditions": "male, rat, po, SD rats, plasma, i.g. (10 mg/kg)"}},
  "data": [
    {"molecule": "[2H]C([2H])([2H])Oc1cc(C)c2[nH]ccc2c1CN1CC[C@@H](C2CC2)C[C@H]1c1ccc(C(=O)O)cc1", "note": "[Trifluoroacetate of compound 1, 4-((2S,4R)-4-cyclopropyl-1-((5-(methoxy-d3)-7-methyl-1H-indol-4-yl)methyl)piperidin-2-yl)benzoic acid]", "values": [
      {"measurement": "maximum plasma concentration", "setting": "[1]; [5]", "result": "higher"},
      {"measurement": "oral bioavailability", "setting": "[1]; [5]", "result": "higher"},
      {"measurement": "bioavailability", "setting": "[2]", "result": "higher"},
      {"measurement": "oral exposure", "setting": "[2]", "result": "higher"},
      {"measurement": "permeability", "setting": "Caco-2 cells", "result": "better"},
      {"measurement": "Papp A→B at 2 h, 2 µM", "setting": "in vitro", "result": 1.77, "unit": "×10⁻⁶ cm/s"},
      {"measurement": "Papp B→A at 2 h, 2 µM", "setting": "in vitro", "result": 19.4, "unit": "×10⁻⁶ cm/s"}
    ]},
    {"molecule": "CCO[C@H]1CCN(Cc2c(OC)cc(C)c3[nH]ccc23)[C@H](c2ccc(C(=O)O)cc2)C1", "note": "[LNP023]", "values": [
      {"measurement": "bioavailability", "setting": "[1]; male, rat, plasma, po, SD rats, i.g. (10 mg/kg)", "result": 49, "unit": "%"},
      {"measurement": "Cmax", "setting": "[1]; [6]", "result": 867, "unit": "ng/mL"},
      {"measurement": "Tmax", "setting": "[1]; [6]", "result": 3.5, "unit": "h"},
      {"measurement": "half-life", "setting": "[1]; [6]", "result": 3.39, "unit": "h"},
      {"measurement": "AUC(0-t)", "setting": "[1]; male, rat, po, SD rats, plasma, i.g. (10 mg/kg), read-out: AUC0-24h", "result": 9870, "unit": "ng·h/mL"}
    ]},
    {"molecule": "[2H]C([2H])([2H])Oc1cc(C)c2[nH]ccc2c1CN1CC[C@@H](C2CC2)C[C@H]1c1ccc(C(=O)O)cc1", "note": "[compound 1, 4-((2S,4R)-4-cyclopropyl-1-((5-(methoxy-d3)-7-methyl-1H-indol-4-yl)methyl)piperidin-2-yl)benzoic acid]", "values": [
      {"measurement": "inhibitory activity against complement factor B", "setting": "complement factor B", "result": "good"},
      {"measurement": "inhibition rate of C3a level in vivo", "setting": "C3a level", "result": "good"}
    ]},
    {"molecule": "[2H]C([2H])([2H])Oc1cc(C)c2[nH]ccc2c1CN1CC[C@@H](C2CC2)C[C@H]1c1ccc(C(=O)O)cc1", "note": "[4-((2S,4R)-4-cyclopropyl-1-((5-(methoxy-d3)-7-methyl-1H-indol-4-yl)methyl)piperidin-2-yl)benzoic acid]", "values": [
      {"measurement": "Purity", "setting": "[3]; 0 day", "result": 97.80, "unit": "%"},
      {"measurement": "Purity", "setting": "[3]; Accelerated: 40°C ± 2°C, 75% ± 5% RH, 1 month", "result": 97.70, "unit": "%"},
      {"measurement": "Purity", "setting": "[3]; Accelerated: 40°C ± 2°C, 75% ± 5% RH, 2 months", "result": 97.70, "unit": "%"},
      {"measurement": "Purity", "setting": "[3]; Accelerated: 40°C ± 2°C, 75% ± 5% RH, 3 months", "result": 97.90, "unit": "%"},
      {"measurement": "Purity", "setting": "[3]; Accelerated: 40°C ± 2°C, 75% ± 5% RH, 6 months", "result": 97.80, "unit": "%"},
      {"measurement": "Purity", "setting": "[3]; Intermediate: 25°C ± 2°C, 60% ± 5% RH, 3 months", "result": 98.00, "unit": "%"},
      {"measurement": "Purity", "setting": "[3]; Intermediate: 25°C ± 2°C, 60% ± 5% RH, 6 months", "result": 97.80, "unit": "%"},
      {"measurement": "Purity", "setting": "[3]; Long-term: 2°C - 8°C, 3 months", "result": 97.90, "unit": "%"},
      {"measurement": "Purity", "setting": "[3]; Long-term: 2°C - 8°C, 6 months", "result": 97.70, "unit": "%"},
      {"measurement": "stability", "setting": "[3]; under accelerated, intermediate and long-term conditions, conclusion in words", "result": "good stability"},
      {"measurement": "hygroscopic weight gain", "setting": "[4]", "result": "about 1.15%"}
    ]}
  ]
}
